Measurements: US20070213339A1 (Bayer Pharmaceuticals Corporation, priority 2004, published 2007)

test system: Colo205 human colon carcinoma cell line; assay: In vitro tumor cell proliferation assay (MTS, CellTiter 96 Aqueous One Solution); assay type: cell-based; conditions: COLO 205, Colo205 cells, 72 hours compound exposure, MTS absorbance at 490 nm, read-out: IC50 (concentration of test compound required to inhibit proliferation of 50% of the cells)
Method in brief: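 Colo205 cells seeded at 2000 cells/well in RPMI-1640 with 10% serum, exposed to compound for 72 h at 37 °C, 5% CO2, in a 5-point dose-response up to 10-20 μM. Viability read by MTS absorbance at 490 nm; IC50 from background-corrected percent inhibition by linear regression.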

SMILES | IC50 [nM]
O=C(O)c1cn(-c2ccc(CN3CCCC3)cc2)c2c(Cl)c(N3CCN(c4ncccc4C(F)(F)F)CC3)c(F)cc2c1=O [Example 14, 8-chloro-6-fluoro-4-oxo-1-[4-(pyrrolidin-1-yl-methyl)phenyl]-7-{4-[3-(trifluoromethyl)pyridin-2-yl]piperazin-1-yl}-1,4-dihydroquinoline-3-carboxylic acid] | 500 to 2000
CC1CCCN1Cc1ccc(-n2cc(C(=O)O)c(=O)c3cc(F)c(N4CCN(c5ccccn5)CC4)c(Cl)c32)cc1 (stereo not shown) [Example 17, 8-chloro-6-fluoro-1-{4-[(2-methylpyrrolidin-1-yl)methyl]phenyl}-4-oxo-7-(4-pyridin-2-ylpiperazin-1-yl)-1,4-dihydroquinoline-3-carboxylic acid] | < 500
COc1c(N2CCN(c3cccc(F)c3)CC2)c(F)cc2c(=O)c(C(=O)O)cn(-c3ccc(CN4CCCC4)cc3)c12 [Example 85, 6-fluoro-7-[4-(3-fluorophenyl)piperazin-1-yl]-8-methoxy-4-oxo-1-[4-(pyrrolidin-1-ylmethyl)phenyl]-1,4-dihydroquinoline-3-carboxylic acid] | < 500
CCN(CC)Cc1ccc(-n2cc(C(=O)O)c(=O)c3cc(F)c(N4CCN(c5ccc(C(F)(F)F)cc5)CC4)c(OC)c32)cc1 [Example 112, 1-{4-[(diethylamino)methyl]phenyl}-6-fluoro-8-methoxy-4-oxo-7-{4-[4-(trifluoromethyl)phenyl]piperazin-1-yl}-1,4-dihydroquinoline-3-carboxylic acid] | 2000 to 20000
COc1c(N2CCN(c3ccc(Cl)c(Cl)c3)CC2)c(F)cc2c(=O)c(C(=O)O)cn(-c3ccc(CN4CCCC4)cc3)c12 [Example 86, 7-[4-(3,4-dichlorophenyl)piperazin-1-yl]-6-fluoro-8-methoxy-4-oxo-1-[4-(pyrrolidin-1-ylmethyl)phenyl]-1,4-dihydroquinoline-3-carboxylic acid] | 500 to 2000
Cc1cccc(N2CCN(c3c(F)cc4c(=O)c(C(=O)O)cn(-c5ccc(CN(C)C)cc5)c4c3OC(F)(F)F)CC2)n1 [Example 127, 1-{4-[(dimethylamino)methyl]phenyl}-6-fluoro-7-[4-(6-methylpyridin-2-yl)piperazin-1-yl]-4-oxo-8-(trifluoromethoxy)-1,4-dihydroquinoline-3-carboxylic acid] | < 500
O=C(O)c1cn(-c2ccc(CN3CCCC3)cc2)c2c(OC(F)(F)F)c(N3CCN(c4ccccn4)CC3)c(F)cc2c1=O [Example 124, 6-fluoro-4-oxo-7-(4-pyridin-2-yl-piperazin-1-yl)-1-[4-(pyrrolidin-1-ylmethyl)phenyl]-8-(trifluoromethoxy)-1,4-dihydroquinoline-3-carboxylic acid] | < 500
Cc1cccnc1N1CCN(c2c(F)cc3c(=O)c(C(=O)O)cn(-c4ccc(CN5CCCC5)cc4)c3c2OC(F)(F)F)CC1 [Example 122, 6-fluoro-7-[4-(3-methylpyridin-2-yl)-piperazin-1-yl]-4-oxo-1-[4-(pyrrolidin-1-ylmethyl)phenyl]-8-(trifluoromethoxy)-1,4-dihydroquinoline-3-carboxylic acid] | < 500
CCN(CC)Cc1ccc(-n2cc(C(=O)O)c(=O)c3cc(F)c(N4CCN(c5ccc(F)cc5F)CC4)c(OC)c32)cc1 [Example 111, 1-{4-[(diethylamino)methyl]phenyl}-7-[4-(2,4-difluorophenyl)piperazin-1-yl]-6-fluoro-8-methoxy-4-oxo-1,4-dihydroquinoline-3-carboxylic acid] | 500 to 2000
CCN(CC)Cc1ccc(-n2cc(C(=O)O)c(=O)c3cc(F)c(N4CCN(c5ncccn5)CC4)c(OC)c32)cc1 [Example 106, 1-{4-[(diethylamino)methyl]phenyl}-6-fluoro-8-methoxy-4-oxo-7-(4-pyrimidin-2-ylpiperazin-1-yl)-1,4-dihydroquinoline-3-carboxylic acid] | < 500
COc1c(N2CCN(c3ccccc3[N+](=O)[O-])CC2)c(F)cc2c(=O)c(C(=O)O)cn(-c3ccc(CN4CCCCC4)cc3)c12 [Example 91, 6-fluoro-8-methoxy-7-[4-(2-nitrophenyl)-piperazin-1-yl]-4-oxo-1-[4-(piperidin-1-ylmethyl)phenyl]-1,4-dihydroquinoline-3-carboxylic acid] | 500 to 2000
O=C(O)c1cn(-c2cccc(CN3CCCCC3)c2)c2c(Cl)c(N3CCN(c4ccccn4)CC3)c(F)cc2c1=O [Example 65, 8-chloro-6-fluoro-4-oxo-1-[3-(piperidin-1-yl-methyl)phenyl]-7-(4-pyridin-2-ylpiperazin-1-yl)-1,4-dihydroquinoline-3-carboxylic acid] | 2000 to 20000
Cc1cccc(N2CCN(c3c(F)cc4c(=O)c(C(=O)O)cn(-c5ccc(CN6CCCC6)cc5)c4c3Cl)CC2)n1 [Example 13, 8-chloro-6-fluoro-7-[4-(6-methylpyridin-2-yl)-piperazin-1-yl]-4-oxo-1-[4-(pyrrolidin-1-ylmethyl)phenyl]-1,4-dihydroquinoline-3-carboxylic acid] | < 500
COc1c(N2CCN(c3ccc(C(C)=O)cc3)CC2)c(F)cc2c(=O)c(C(=O)O)cn(-c3ccc(CN(C)C)cc3)c12 [Example 103, 7-[4-(4-acetylphenyl)piperazin-1-yl]-1-{4-[(dimethylamino)methyl]phenyl}-6-fluoro-8-methoxy-4-oxo-1,4-dihydroquinoline-3-carboxylic acid] | 500 to 2000
O=C(O)c1cn(-c2cccc(CN3CCCCC3)c2)c2c(Cl)c(N3CCN(c4cccc(Cl)c4)CC3)c(F)cc2c1=O [Example 68, 8-chloro-7-[4-(3-chlorophenyl)piperazin-1-yl]-6-fluoro-4-oxo-1-[3-(piperidin-1-ylmethyl)phenyl]-1,4-dihydroquinoline-3-carboxylic acid] | 2000 to 20000

Now from value to compound:

IC50 [nM] | SMILES
< 500 | O=C(O)c1cn(-c2ccc(CN3CCCC3)c(F)c2)c2c(Cl)c(N3CCN(c4ccc(F)cc4)CC3)c(F)cc2c1=O [Example 186, 8-chloro-7-[4-(4-fluorophenyl)-piperazine-1-yl]-6-fluoro-1-(3-fluoro-4-pyrrolidin-1-ylmethyl-phenyl)-4-oxo-1,4-dihydroquinoline-3-carboxylic acid]
< 500 | CC(C)N(Cc1ccc(-n2cc(C(=O)O)c(=O)c3cc(F)c(N4CCN(c5ccccn5)CC4)c(Cl)c32)cc1)C1CCCCC1 [Example 174, 8-chloro-1-{4-[(2-cyclohexyl-isopropyl-amino)-methyl]-phenyl}-6-fluoro-4-oxo-7-(4-pyridin-2-yl-piperazine-1-yl)-1,4-dihydro-quinoline-3-carboxylic acid]
< 500 | N#Cc1cccnc1N1CCN(c2c(F)cc3c(=O)c(C(=O)O)cn(-c4ccc(CN5CCCC5)cc4)c3c2OC(F)(F)Cl)CC1 [Example 149, 8-[chloro(difluoro)methoxy]-7-[4-(3-cyanopyridin-2-yl)piperazin-1-yl]-6-fluoro-4-oxo-1-[4-(pyrrolidin-1-ylmethyl)-phenyl]-1,4-dihydroquinoline-3-carboxylic acid]
< 500 | CN(C)Cc1ccc(-n2cc(C(=O)O)c(=O)c3cc(F)c(N4CCN(c5ccc(F)cc5)CC4)c(OC(F)(F)Cl)c32)cc1 [Example 155, 8-[chloro(difluoro)methoxy]-1-{4-[(dimethylamino)methyl]phenyl}-6-fluoro-7-[4-(4-fluorophenyl)piperazin-1-yl]-4-oxo-1,4-dihydroquinoline-3-carboxylic acid]
< 500 | O=C(O)c1cn(-c2ccc(CNC3CCC[C@@H]3O)cc2)c2c(Cl)c(N3CCN(c4ccccn4)CC3)c(F)cc2c1=O (stereo in doubt) [Example 172, 8-chloro-6-fluoro-1{4-[(2-hydroxycyclopentylamino)-methyl]-phenyl}-4-oxo-7-(4-pyridin-2-yl-piperazine-1-yl)-1,4-dihydro-quinoline-3-carboxylic acid]
< 500 | COc1cc(CN2CCCCC2)ccc1-n1cc(C(=O)O)c(=O)c2cc(F)c(N3CCN(c4ccc(F)cc4)CC3)c(Cl)c21 [Example 177, 8-chloro-6-fluoro-7-[4-(4-fluorophenyl)-piperazine-1-yl]-1-(2-methoxy-4-piperidine-1-ylmethyl-phenyl)-4-oxo-1,4-dihydroquinoline-3-carboxylic acid]
< 500 | CCN(CC)Cc1ccc(-n2cc(C(=O)O)c(=O)c3cc(F)c(N4CCN(c5ncccc5C#N)CC4)c(OC(F)(F)Cl)c32)cc1 [Example 161, 8-[chloro(difluoro)methoxy]-7-[4-(3-cyanopyridin-2-yl)piperazin-1-yl]-1-{4-[(diethylamino)methyl]phenyl}-6-fluoro-4-oxo-1,4-dihydroquinoline-3-carboxylic acid]
500 to 2000 | CN(C)Cc1ccc(-n2cc(C(=O)O)c(=O)c3cc(F)c(N4CCN(c5ncccn5)CC4)c(OC(F)(F)Cl)c32)cc1 [Example 157, 8-[chloro(difluoro)methoxy]-1-{4-[(dimethylamino)methyl]phenyl}-6-fluoro-4-oxo-7-(4-pyrimidin-2-ylpiperazin-1-yl)-1,4-dihydroquinoline-3-carboxylic acid]
< 500 | O=C(O)c1cn(-c2ccc(CN3CCCC3)cc2)c2c(OC(F)(F)Cl)c(N3CCN(c4ccc(Cl)cc4)CC3)c(F)cc2c1=O [Example 148, 8-[chloro(difluoro)methoxy]-7-[4-(4-chlorophenyl)piperazin-1-yl]-6-fluoro-4-oxo-1-[4-(pyrrolidin-1-ylmethyl)phenyl]-1,4-dihydroquinoline-3-carboxylic acid]
< 500 | CCN(CC)Cc1ccc(-n2cc(C(=O)O)c(=O)c3cc(F)c(N4CCN(c5ccc(F)cc5F)CC4)c(OC(F)(F)F)c32)cc1 [Example 137, 1-{4-[(diethylamino)methyl]phenyl}-7-[4-(2,4-difluorophenyl)piperazin-1-yl]-6-fluoro-4-oxo-8-(trifluoromethoxy)-1,4-dihydroquinoline-3-carboxylic acid]
